According to patent US12509457B2, “Bicyclic nitrogen containing heterocycles as inhibitors of salt-induced kinase SIK2” (priority 2019, dated 2025):

Assays:
Assay type in all cases: biochemical
SIK2 = SIK2 (Homo sapiens, UniProt Q9H0K1); assay: SIK2 kinase assay, IMAP fluorescence polarization
SIK1 = SIK1 (Homo sapiens, UniProt P57059); assay: SIK1 kinase assay, IMAP fluorescence polarization
SIK3 = SIK3 (Homo sapiens, UniProt Q9Y2K2); assay: SIK3 kinase assay, IMAP fluorescence polarization
Abl = Abl (Homo sapiens, UniProt P00519); assay: Abl kinase assay, IMAP fluorescence polarization
Abl, sequence (P00519 whole entry): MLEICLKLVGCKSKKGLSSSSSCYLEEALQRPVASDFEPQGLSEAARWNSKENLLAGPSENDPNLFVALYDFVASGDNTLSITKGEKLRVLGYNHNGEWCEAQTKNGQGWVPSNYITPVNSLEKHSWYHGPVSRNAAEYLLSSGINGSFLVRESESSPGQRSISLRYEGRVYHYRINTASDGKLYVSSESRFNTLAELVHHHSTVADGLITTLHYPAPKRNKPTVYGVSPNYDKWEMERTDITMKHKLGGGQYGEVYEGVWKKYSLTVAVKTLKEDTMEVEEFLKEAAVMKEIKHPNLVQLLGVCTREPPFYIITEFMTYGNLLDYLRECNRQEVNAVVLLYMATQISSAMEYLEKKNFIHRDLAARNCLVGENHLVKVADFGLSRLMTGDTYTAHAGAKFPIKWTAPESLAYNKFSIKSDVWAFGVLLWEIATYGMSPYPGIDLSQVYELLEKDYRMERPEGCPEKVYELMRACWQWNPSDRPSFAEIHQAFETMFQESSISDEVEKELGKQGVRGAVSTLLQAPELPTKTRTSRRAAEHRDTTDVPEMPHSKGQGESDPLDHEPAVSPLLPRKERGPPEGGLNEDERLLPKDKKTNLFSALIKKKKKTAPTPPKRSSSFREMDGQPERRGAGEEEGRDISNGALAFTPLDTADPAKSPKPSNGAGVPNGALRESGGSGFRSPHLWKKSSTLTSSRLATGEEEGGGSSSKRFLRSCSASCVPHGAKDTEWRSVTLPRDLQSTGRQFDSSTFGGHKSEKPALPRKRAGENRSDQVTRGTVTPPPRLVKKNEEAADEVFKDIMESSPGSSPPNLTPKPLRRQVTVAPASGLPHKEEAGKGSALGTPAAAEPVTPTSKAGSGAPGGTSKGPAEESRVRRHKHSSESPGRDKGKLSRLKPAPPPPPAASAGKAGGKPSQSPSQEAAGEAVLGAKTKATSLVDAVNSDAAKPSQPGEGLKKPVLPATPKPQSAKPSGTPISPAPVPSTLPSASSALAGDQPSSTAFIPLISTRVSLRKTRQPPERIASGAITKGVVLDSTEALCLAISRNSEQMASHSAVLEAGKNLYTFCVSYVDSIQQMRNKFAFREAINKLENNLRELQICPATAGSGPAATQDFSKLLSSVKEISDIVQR

Src = Src (Homo sapiens, UniProt P12931); assay: Src kinase assay, IMAP fluorescence polarization
Src, sequence (P12931 whole entry): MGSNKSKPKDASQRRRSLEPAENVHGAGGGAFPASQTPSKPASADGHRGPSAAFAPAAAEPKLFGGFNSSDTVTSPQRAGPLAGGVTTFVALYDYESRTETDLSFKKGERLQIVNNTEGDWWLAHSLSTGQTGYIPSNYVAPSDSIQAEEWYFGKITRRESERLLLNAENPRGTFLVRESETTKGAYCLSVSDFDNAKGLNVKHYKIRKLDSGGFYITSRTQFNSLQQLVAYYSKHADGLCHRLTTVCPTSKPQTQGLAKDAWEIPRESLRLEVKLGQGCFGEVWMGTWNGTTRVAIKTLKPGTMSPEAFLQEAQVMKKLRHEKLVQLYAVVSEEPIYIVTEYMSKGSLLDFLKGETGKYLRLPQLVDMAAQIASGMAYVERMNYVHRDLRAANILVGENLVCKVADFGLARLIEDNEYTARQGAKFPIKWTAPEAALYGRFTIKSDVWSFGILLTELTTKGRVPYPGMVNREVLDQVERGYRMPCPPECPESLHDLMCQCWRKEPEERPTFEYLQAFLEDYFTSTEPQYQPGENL

SIK3, sequence (Q9Y2K2 whole entry): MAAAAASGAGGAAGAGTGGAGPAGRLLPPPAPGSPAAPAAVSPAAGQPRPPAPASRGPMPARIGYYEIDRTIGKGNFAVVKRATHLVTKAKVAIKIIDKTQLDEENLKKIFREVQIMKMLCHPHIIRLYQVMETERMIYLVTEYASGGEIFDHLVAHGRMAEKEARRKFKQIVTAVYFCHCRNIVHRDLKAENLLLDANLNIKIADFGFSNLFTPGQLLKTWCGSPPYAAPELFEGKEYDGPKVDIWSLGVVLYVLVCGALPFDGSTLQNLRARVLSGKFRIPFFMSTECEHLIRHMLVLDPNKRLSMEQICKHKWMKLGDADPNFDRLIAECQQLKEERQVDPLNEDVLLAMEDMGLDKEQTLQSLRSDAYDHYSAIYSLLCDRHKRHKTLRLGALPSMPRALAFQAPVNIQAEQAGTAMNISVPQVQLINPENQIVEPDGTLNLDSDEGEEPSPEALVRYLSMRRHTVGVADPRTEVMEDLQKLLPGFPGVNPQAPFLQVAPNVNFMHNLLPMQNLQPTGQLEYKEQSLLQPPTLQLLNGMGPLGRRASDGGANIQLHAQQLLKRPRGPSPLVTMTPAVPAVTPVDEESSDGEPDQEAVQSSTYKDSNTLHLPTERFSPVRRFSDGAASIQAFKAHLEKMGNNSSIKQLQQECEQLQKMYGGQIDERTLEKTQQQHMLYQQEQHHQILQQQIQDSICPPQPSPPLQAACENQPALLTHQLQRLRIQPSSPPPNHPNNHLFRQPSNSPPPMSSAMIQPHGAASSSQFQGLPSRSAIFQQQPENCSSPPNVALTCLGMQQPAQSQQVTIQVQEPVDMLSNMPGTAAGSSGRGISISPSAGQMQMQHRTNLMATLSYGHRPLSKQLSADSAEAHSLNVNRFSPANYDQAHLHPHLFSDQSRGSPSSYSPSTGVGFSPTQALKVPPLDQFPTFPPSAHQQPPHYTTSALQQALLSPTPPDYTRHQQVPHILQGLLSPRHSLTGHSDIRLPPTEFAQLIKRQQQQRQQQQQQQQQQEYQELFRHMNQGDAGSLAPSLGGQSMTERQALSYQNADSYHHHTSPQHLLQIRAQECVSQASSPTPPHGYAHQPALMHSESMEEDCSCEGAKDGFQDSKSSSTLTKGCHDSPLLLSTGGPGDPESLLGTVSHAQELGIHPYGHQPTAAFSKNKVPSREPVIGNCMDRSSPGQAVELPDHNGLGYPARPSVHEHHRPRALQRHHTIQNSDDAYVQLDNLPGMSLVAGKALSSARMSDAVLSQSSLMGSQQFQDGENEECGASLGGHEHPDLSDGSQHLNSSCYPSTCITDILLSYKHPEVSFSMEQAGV
SIK1, sequence (P57059 whole entry): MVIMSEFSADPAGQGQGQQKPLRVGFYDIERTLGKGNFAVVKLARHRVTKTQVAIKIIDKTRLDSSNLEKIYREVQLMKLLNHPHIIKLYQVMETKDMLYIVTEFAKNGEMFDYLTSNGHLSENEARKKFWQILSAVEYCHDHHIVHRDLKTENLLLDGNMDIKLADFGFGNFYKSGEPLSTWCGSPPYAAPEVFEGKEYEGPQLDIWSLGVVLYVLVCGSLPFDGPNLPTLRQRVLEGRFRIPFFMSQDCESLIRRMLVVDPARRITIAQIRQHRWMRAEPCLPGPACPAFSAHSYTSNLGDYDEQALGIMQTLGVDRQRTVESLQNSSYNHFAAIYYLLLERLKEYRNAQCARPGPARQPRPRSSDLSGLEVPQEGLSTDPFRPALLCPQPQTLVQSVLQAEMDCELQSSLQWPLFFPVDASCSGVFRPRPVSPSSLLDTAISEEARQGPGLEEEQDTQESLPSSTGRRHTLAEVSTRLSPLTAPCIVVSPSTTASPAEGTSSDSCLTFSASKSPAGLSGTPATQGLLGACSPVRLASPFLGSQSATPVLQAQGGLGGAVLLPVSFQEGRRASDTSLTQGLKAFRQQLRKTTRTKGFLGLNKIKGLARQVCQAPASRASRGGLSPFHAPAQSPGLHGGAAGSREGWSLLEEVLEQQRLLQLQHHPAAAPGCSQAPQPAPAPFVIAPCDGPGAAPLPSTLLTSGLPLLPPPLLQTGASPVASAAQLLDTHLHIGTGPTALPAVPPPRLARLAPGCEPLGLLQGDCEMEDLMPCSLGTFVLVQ
SIK2, sequence (Q9H0K1 whole entry): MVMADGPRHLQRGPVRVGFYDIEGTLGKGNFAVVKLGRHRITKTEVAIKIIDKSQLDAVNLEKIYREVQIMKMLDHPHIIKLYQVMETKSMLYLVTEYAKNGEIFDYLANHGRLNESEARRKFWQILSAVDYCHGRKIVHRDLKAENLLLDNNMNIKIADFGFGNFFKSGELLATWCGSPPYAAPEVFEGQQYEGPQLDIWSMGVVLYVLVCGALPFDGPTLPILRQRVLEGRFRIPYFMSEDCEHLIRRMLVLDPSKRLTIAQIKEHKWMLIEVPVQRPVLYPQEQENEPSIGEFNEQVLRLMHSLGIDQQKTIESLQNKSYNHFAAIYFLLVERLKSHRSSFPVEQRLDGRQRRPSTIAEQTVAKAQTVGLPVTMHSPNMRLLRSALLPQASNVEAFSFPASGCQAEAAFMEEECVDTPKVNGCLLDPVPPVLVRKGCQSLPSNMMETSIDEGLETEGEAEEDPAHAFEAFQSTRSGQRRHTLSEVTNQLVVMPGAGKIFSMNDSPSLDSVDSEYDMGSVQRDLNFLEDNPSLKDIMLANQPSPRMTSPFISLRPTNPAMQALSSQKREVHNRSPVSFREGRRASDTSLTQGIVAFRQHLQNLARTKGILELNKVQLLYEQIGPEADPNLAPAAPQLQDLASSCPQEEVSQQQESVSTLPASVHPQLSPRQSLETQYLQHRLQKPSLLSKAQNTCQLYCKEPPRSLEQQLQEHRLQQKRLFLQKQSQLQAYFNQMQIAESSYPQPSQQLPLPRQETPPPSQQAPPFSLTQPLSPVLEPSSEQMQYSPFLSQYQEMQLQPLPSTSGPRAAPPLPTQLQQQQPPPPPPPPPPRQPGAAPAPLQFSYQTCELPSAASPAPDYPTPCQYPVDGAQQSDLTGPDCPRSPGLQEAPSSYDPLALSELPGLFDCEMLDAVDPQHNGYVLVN

Cc1cccc(F)c1N1Cc2cnc(N)cc2N(C2CCNCC2)C1=O [Example 1, 7-Amino-3-(2-fluoro-6-methyl-phenyl)-1-(4-piperidyl)-4H-pyrido[4,3-d]pyrimidin-2-one]
Ki (SIK2): 0.248 nM
Ki (SIK1): 1.68 nM
Ki (SIK3): 1.79 nM
Ki (Abl): > 1000 nM
Ki (Src): > 1000 nM

Cc1cccc(F)c1N1Cc2cnc(N)cc2N(C2CCN(C)CC2)C1=O [Example 3, 7-Amino-3-(2-fluoro-6-methyl-phenyl)-1-(1-methyl-4-piperidyl)-4H-pyrido[4,3-d]pyrimidin-2-one]
Ki (SIK2): 0.239 nM
Ki (SIK1): 0.632 nM
Ki (SIK3): 0.975 nM
Ki (Abl): 122 nM
Ki (Src): 387 nM

Cc1cccc(Cl)c1N1Cc2cnc(N)cc2N(C2CCNCC2)C1=O [Example 6, 7-amino-3-(2-chloro-6-methyl-phenyl)-1-(4-piperidyl)-4H-pyrido[4,3-d]pyrimidin-2-one]
Ki (SIK2): 3.09 nM
Ki (SIK1): 3.35 nM
Ki (SIK3): 10.8 nM
Ki (Abl): 108 nM
Ki (Src): 216 nM

Cc1cccc(Cl)c1N1Cc2cnc(N)cc2N(C2CCN(C)CC2)C1=O [Example 7, 7-amino-3-(2-chloro-6-methyl-phenyl)-1-(1-methyl-4-piperidyl)-4H-pyrido[4,3-d]pyrimidin-2-one]
Ki (SIK2): 2.49 nM
Ki (SIK1): 3.21 nM
Ki (SIK3): 9.46 nM
Ki (Abl): 271 nM
Ki (Src): 263 nM

Cc1cccc(F)c1N1Cc2cnc(N)nc2N(C2CCNCC2)C1=O [Example 11, 7-Amino-3-(2-fluoro-6-methyl-phenyl)-1-(4-piperidyl)-4H-pyrimido[4,5-d]pyrimidin-2-one]
Ki (SIK2): 0.481 nM
Ki (SIK1): 2.36 nM
Ki (SIK3): 4.44 nM
Ki (Abl): 171 nM
Ki (Src): 464 nM

Cc1cccc(Cl)c1N1Cc2cnc(N)nc2N(C2CCNCC2)C1=O [Example 15, 7-Amino-3-(2-chloro-6-methyl-phenyl)-1-(4-piperidyl)-4H-pyrimido[4,5-d]pyrimidin-2-one]
Ki (SIK2): 1.63 nM
Ki (SIK1): 6.23 nM
Ki (SIK3): 18.7 nM
Ki (Abl): > 1000 nM
Ki (Src): 138 nM

Cc1cccc(F)c1N1Cc2cncnc2N(C2CCNCC2)C1=O [Example 16, 3-(2-fluoro-6-methyl-phenyl)-1-(4-piperidyl)-4H-pyrimido[4,5-d]pyrimidin-2-one]
Ki (SIK2): 92.2 nM
Ki (SIK1): 223 nM
Ki (SIK3): 489 nM
Ki (Abl): 4180 nM
Ki (Src): > 100000 nM

Cc1cccc(Cl)c1N1Cc2cncnc2N(C2CCNCC2)C1=O [Example 17, 3-(2-chloro-6-methyl-phenyl)-1-(4-piperidyl)-4H-pyrimido[4,5-d]pyrimidin-2-one]
Ki (SIK2): 128 nM
Ki (SIK1): 273 nM
Ki (SIK3): 1400 nM
Ki (Abl): 3950 nM
Ki (Src): > 100000 nM

Cc1cccc(F)c1N1Cc2cnccc2N(C2CCNCC2)C1=O [Example 18, 3-(2-Fluoro-6-methyl-phenyl)-1-(4-piperidyl)-4H-pyrido[4,3-d]pyrimidin-2-one]
Ki (SIK2): 8.2 nM
Ki (SIK1): 12 nM
Ki (SIK3): 21.2 nM
Ki (Abl): 512 nM
Ki (Src): 1900 nM

Cc1cccc(F)c1N1Cc2cnc(N)nc2N(C2CCN(C)CC2)C1=O [Example 19, 7-Amino-3-(2-fluoro-6-methyl-phenyl)-1-(1-methyl-4-piperidyl)-4H-pyrimido[4,5-d]pyrimidin-2-one]
Ki (SIK2): 0.739 nM
Ki (SIK1): 9.73 nM
Ki (SIK3): 4.12 nM
Ki (Abl): > 1000 nM
Ki (Src): > 1000 nM

CCN1CCC(N2C(=O)N(c3c(C)cccc3F)Cc3cnc(N)nc32)CC1 [Example 20, 7-amino-1-(1-ethyl-4-piperidyl)-3-(2-fluoro-6-methyl-phenyl)-4H-pyrimido[4,5-d]pyrimidin-2-one]
Ki (SIK2): 0.803 nM
Ki (SIK1): 6.61 nM
Ki (SIK3): 7.18 nM
Ki (Abl): > 1000 nM
Ki (Src): > 1000 nM

Cc1cccc(Cl)c1N1Cc2cnc(N)nc2N(C2CCN(C)CC2)C1=O [Example 22, 7-amino-3-(2-chloro-6-methyl-phenyl)-1-(1-methyl-4-piperidyl)-4H-pyrimido[4,5-d]pyrimidin-2-one]
Ki (SIK2): 3.07 nM
Ki (SIK1): 10.6 nM
Ki (SIK3): 27.8 nM
Ki (Abl): > 1000 nM
Ki (Src): 265 nM

Cc1cccc(F)c1N1Cc2cnccc2N(C2CCN(C)CC2)C1=O [Example 24, 3-(2-fluoro-6-methyl-phenyl)-1-(1-methyl-4-piperidyl)-4H-pyrido[4,3-d]pyrimidin-2-one]
Ki (SIK2): 8.97 nM
Ki (SIK1): 20.6 nM
Ki (SIK3): 24 nM
Ki (Abl): > 10000 nM
Ki (Src): 2250 nM

CCN1CCC(N2C(=O)N(c3c(C)cccc3F)Cc3cnccc32)CC1 [Example 25, 1-(1-ethyl-4-piperidyl)-3-(2-fluoro-6-methyl-phenyl)-4H-pyrido[4,3-d]pyrimidin-2-one]
Ki (SIK2): 17 nM
Ki (SIK1): 33.2 nM
Ki (SIK3): 36.3 nM
Ki (Abl): > 10000 nM
Ki (Src): 2640 nM

Cc1cccc(F)c1N1Cc2cncnc2N(C2CCN(C)CC2)C1=O [Example 26, 3-(2-fluoro-6-methyl-phenyl)-1-(1-methyl-4-piperidyl)-4H-pyrimido[4,5-d]pyrimidin-2-one]
Ki (SIK2): 192 nM
Ki (SIK1): 586 nM
Ki (SIK3): 895 nM
Ki (Abl): > 100000 nM
Ki (Src): > 100000 nM

CCN1CCC(N2C(=O)N(c3c(C)cccc3F)Cc3cncnc32)CC1 [Example 27, 1-(1-ethyl-4-piperidyl)-3-(2-fluoro-6-methyl-phenyl)-4H-pyrimido[4,5-d]pyrimidin-2-one]
Ki (SIK2): 210 nM
Ki (SIK1): 635 nM
Ki (SIK3): 956 nM
Ki (Abl): 4190 nM
Ki (Src): > 100000 nM

Cc1cccc(Cl)c1N1Cc2cncnc2N(C2CCN(C)CC2)C1=O [Example 28, 3-(2-chloro-6-methyl-phenyl)-1-(1-methyl-4-piperidyl)-4H-pyrimido[4,5-d]pyrimidin-2-one]
Ki (SIK2): 213 nM
Ki (SIK1): 397 nM
Ki (SIK3): 2220 nM
Ki (Abl): 6220 nM
Ki (Src): > 100000 nM

CCN1CCC(N2C(=O)N(c3c(C)cccc3Cl)Cc3cncnc32)CC1 [Example 29, 3-(2-chloro-6-methyl-phenyl)-1-(1-ethyl-4-piperidyl)-4H-pyrimido[4,5-d]pyrimidin-2-one]
Ki (SIK2): 128 nM
Ki (SIK1): 207 nM
Ki (SIK3): 1700 nM
Ki (Abl): 6490 nM
Ki (Src): > 100000 nM

Cc1cccc(Cl)c1N1Cc2cnccc2N(C2CCN(C)CC2)C1=O [Example 32, 3-(2-chloro-6-methyl-phenyl)-1-(1-methyl-4-piperidyl)-4H-pyrido[4,3-d]pyrimidin-2-one]
Ki (SIK2): 19.6 nM
Ki (SIK1): 14.7 nM
Ki (SIK3): 144 nM
Ki (Abl): > 10000 nM
Ki (Src): 514 nM

CCN1CCC(N2C(=O)N(c3c(C)cccc3Cl)Cc3cnccc32)CC1 [Example 33, 3-(2-chloro-6-methyl-phenyl)-1-(1-ethyl-4-piperidyl)-4H-pyrido[4,3-d]pyrimidin-2-one]
Ki (SIK2): 20.3 nM
Ki (SIK1): 34.1 nM
Ki (SIK3): 213 nM
Ki (Abl): 4950 nM
Ki (Src): 1540 nM

Cc1cccc(Cl)c1N1Cc2cnccc2N(C2CCNCC2)C1=O [Example 66, 3-(2-chloro-6-methyl-phenyl)-1-(4-piperidyl)-4H-pyrido[4,3-d]pyrimidin-2-one]
Ki (SIK2): 13.2 nM
Ki (SIK1): 10.2 nM
Ki (SIK3): 98.8 nM
Ki (Abl): 621 nM
Ki (Src): 436 nM
